Earlier results as cited in PMC7395068, “The evolution of strategies to minimise the risk of human drug-induced liver injury (DILI) in drug discovery and development” (Archives of Toxicology, 2020).
Counter-ions that a name gives are not always drawn. Like-named read-outs stand apart in the source and are kept apart here.

How the values were obtained:
[1] = cited from earlier work
[2] = cited from earlier work; remark: listed apart in the source
human hepatocytes = settings: cited from earlier work
[3] = system: THLE or HepG2 cells, isolated mitochondria, BSEP; settings: cited from earlier work
[4] = system: primary human hepatocytes, NIH3T3 fibroblasts, BSEP, CYP3A4; settings: cited from earlier work

| Molecule | DILI +VE (5-8), DILI -VE (-4) ([1]; ref Chen 2016) | DILI severity category ([1]; ref Chen 2016) | In vivo DILI ([2]; ref Xu 2008) | Structural based (HCI) (human hepatocytes; In vitro Assay, ref Xu 2008) | Partition Hybrid HRM Score ([3]; In vitro Assay, ref Aleo 2019) | Ro2 Hybrid HRM Score ([3]; In vitro Assay, ref Aleo 2019) | further results |
| --- | --- | --- | --- | --- | --- | --- | --- |
| NCC1(CC(=O)O)CCCCC1 [gabapentin] | +VE | vLess-DILI-Concern | -VE | -VE |  |  | In vivo DILI ([2]; ref Vorrink 2018): -VE |
| Cc1ccc(C)c(OCCCC(C)(C)C(=O)O)c1 [gemfibrozil] | +VE | vMost-DILI-Concern | +VE | +VE |  |  |  |
| NS(=O)(=O)c1cc2c(cc1Cl)NCNS2(=O)=O [hydrochlorothiazide] |  |  |  |  |  |  | DILI +VE (5-8), DILI -VE (-4) ([1]; in vivo): +VE; DILI severity category ([1]; in vivo): vLess-DILI-Concern; In vivo DILI ([2]; in vivo): +VE; Structural based (HCI) (human hepatocytes): +VE |
| CC(=O)[C@]1(O)Cc2c(O)c3c(c(O)c2[C@@H](O[C@H]2C[C@H](N)[C@H](O)[C@H](C)O2)C1)C(=O)c1ccccc1C3=O [idarubicin] |  |  |  |  |  |  | DILI +VE (5-8), DILI -VE (-4) ([1]; binary in vivo human DILI call, ref Chen 2016): -VE; DILI severity category ([1]; human DILI, LTKB DILIrank category, ref Chen 2016): Ambiguous DILI-concern; In vivo DILI ([2]; assignment in Xu 2008, ref Xu 2008): -VE; Structural based (HCI), In vitro Assay (human hepatocytes; human hepatocyte imaging, ref Xu 2008): -VE |
| CC(COc1ccccc1)NC(C)C(O)c1ccc(O)cc1 (stereo not shown) [isoxsuprine] |  |  |  |  |  |  | DILI +VE (5-8), DILI -VE (-4) ([1]; in vivo): -VE; DILI severity category ([1]; in vivo): vNo-DILI-Concern; In vivo DILI ([2]; in vivo): -VE; Structural based (HCI), In vitro Assay (human hepatocytes): -VE |
| CC(C)NCC(O)c1cc(O)cc(O)c1 (stereo not shown) [metaproterenol sulfate] |  |  |  | -VE | -VE | -VE |  |
| CC[C@@H](CO)NC(=O)[C@@H]1C=C2c3cccc4c3c(cn4C)C[C@H]2N(C)C1 [methysergide maleate] |  |  | -VE | -VE |  |  | In vivo DILI ([2]; ref Aleo 2019): -VE; Partition Hybrid HRM Score [3]: -VE; Ro2 Hybrid HRM Score [3]: -VE |
| Cc1ncc([N+](=O)[O-])n1CCO [metronidazole] |  |  |  | +VE | -VE | -VE |  |
| CN[C@@H](C)[C@@H](O)c1ccccc1 [pseudoephedrine] |  |  |  |  |  |  | DILI +VE (5-8), DILI -VE (-4) ([1]; in vivo): -VE; DILI severity category ([1]; in vivo): vNo-DILI-Concern; In vivo DILI ([2]; in vivo): -VE; Structural based (HCI), In vitro Assay (human hepatocytes): -VE |
| NC(=O)c1ncn([C@@H]2O[C@H](CO)[C@@H](O)[C@H]2O)n1 [ribavirin] | -VE | Ambiguous DILI-concern | -VE | -VE | -VE | -VE |  |
| CN[C@H]1CC[C@@H](c2ccc(Cl)c(Cl)c2)c2ccccc21 [sertraline] | +VE | vLess-DILI-Concern | -VE | -VE |  |  | In vivo DILI ([2]; […]): -VE |
| CC(=O)S[C@@H]1CC2=CC(=O)CC[C@]2(C)[C@H]2CC[C@@]3(C)[C@@H](CC[C@@]34CCC(=O)O4)[C@H]12 [spironolactone] | +VE | vLess-DILI-Concern | +VE | +VE |  |  |  |
| CC[C@H]1OC(=O)[C@H](C)C(=O)[C@H](C)[C@@H](O[C@@H]2O[C@H](C)C[C@H](N(C)C)[C@H]2O)[C@](C)(OC)C[C@@H](C)C(=O)[C@H](C)[C@H]2N(CCCCn3cnc(-c4cccnc4)c3)C(=O)O[C@]12C [telithromycin] | +VE | vMost-DILI-Concern | +VE | +VE | +VE | +VE | In vivo DILI ([2]; ref Aleo 2019): +VE |
| CCCc1nc2c(C)cc(-c3nc4ccccc4n3C)cc2n1Cc1ccc(-c2ccccc2C(=O)O)cc1 [telmisartan] | +VE | vLess-DILI-Concern | -VE | -VE | +VE | +VE | In vivo DILI ([2]; ref Aleo 2019): +VE; In vivo DILI ([2]; ref Schadt 2015): -VE; Cellular toxicity (3T3 cells) [4]: -VE; Combined Assay [4]: +VE; GSH adduct HML [4]: -VE; Hepatocyte cellular toxicity [4]: +VE; MitoTox 3T3 [4]: -VE; TDI CYP3A4 [4]: -VE; hBSEP inhibition [4]: +VE |
| Nc1nc2nc[nH]c2c(=S)[nH]1 [thioguanine] |  |  |  | -VE | -VE | -VE |  |
| CN1C(=O)OC(C)(C)C1=O [trimethadione] | -VE | Ambiguous DILI-concern | +VE | -VE |  |  |  |
| C[C@H](CCC(=O)O)[C@H]1CC[C@H]2[C@@H]3[C@@H](O)C[C@@H]4C[C@H](O)CC[C@]4(C)[C@H]3CC[C@]12C [ursodeoxycholic acid] | -VE | Ambiguous DILI-concern | -VE | -VE |  |  |  |
| bacitracin | -VE | vNo-DILI-Concern | -VE | -VE |  |  |  |
